According to ChEMBL document CHEMBL4480449, “Conolodinines A-D, Aspidosperma- Aspidosperma Bisindole Alkaloids with Antiproliferative Activity from Tabernaemontana corymbosa” (J Nat Prod, 2019):

Legend:
[1] = Cytotoxicity against human KB/S cells after 72 hrs by MTT assay; format: functional, cell-based
KB/VJ300 [2] = assay: Cytotoxicity against human KB/VJ300 cells after 72 hrs by MTT assay; format: functional, cell-based
KB/VJ300 [3] = assay: Cytotoxicity against human KB/VJ300 cells after 72 hrs in presence of vincristine by MTT assay; format: functional, cell-based; note: test concentration or dose not given here
PC-3 = assay: Cytotoxicity against human PC3 cells after 72 hrs by MTT assay; format: functional, cell-based
LNCaP = assay: Cytotoxicity against human LNCAP cells after 72 hrs by MTT assay; format: functional, cell-based
MCF7 = assay: Cytotoxicity against human MCF7 cells after 72 hrs by MTT assay; format: functional, cell-based
MDA-MB-231 = assay: Cytotoxicity against human MDA-MB-231 cells after 72 hrs by MTT assay; format: functional, cell-based
A549 = assay: Cytotoxicity against human A549 cells after 72 hrs by MTT assay; format: functional, cell-based; settings: A549, 72 h
HCT-116 = assay: Cytotoxicity against human HCT116 cells after 72 hrs by MTT assay; format: functional, cell-based; settings: HCT-116, 72 h
HT-29 = assay: Cytotoxicity against human HT-29 cells after 72 hrs by MTT assay; format: functional, cell-based
MRC5 = assay: Cytotoxicity against human MRC5 cells after 72 hrs by MTT assay; format: cell-based

Row | Compound | IC50 ([1]; Homo sapiens, 72 h) [nM] | IC50 (KB/VJ300 [2]; Homo sapiens, KB/VJ300, 72 h) [nM] | IC50 (KB/VJ300 [3]; Homo sapiens, KB/VJ300, 72 h) [nM] | IC50 (PC-3; Homo sapiens, PC-3, 72 h) [nM] | IC50 (LNCaP; Homo sapiens, LNCaP, 72 h) [nM] | IC50 (MCF7; Homo sapiens, MCF7, 72 h) [nM] | IC50 (MDA-MB-231; Homo sapiens, MDA-MB-231, 72 h) [nM] | IC50 (A549) [nM] | IC50 (HCT-116) [nM] | IC50 (HT-29; Homo sapiens, HT-29, 72 h) [nM] | IC50 (MRC5; Homo sapiens, MRC5, 72 h) [nM] | IC50 [1] [nM] | IC50 (KB/VJ300 [2]; kb/vj300) [nM] | IC50 (KB/VJ300 [3]; kb/vj300) [nM] | IC50 (PC-3; pc-3) [nM] | IC50 (LNCaP; lncap) [nM] | IC50 (MCF7; mcf7) [nM] | IC50 (MDA-MB-231; mda-mb-231) [nM] | IC50 (HT-29; ht-29) [nM] | IC50 (MRC5; mrc5) [nM]
1 | CC[C@@]12CC(C(=O)OC)=C3Nc4cc5c(cc4[C@@]34CCN(C[C@H](O)[C@H]1O)[C@@H]24)[C@@H]1[C@H](O5)[C@@H](O)[C@@]2(CC)CC(C(=O)OC)=C3Nc4c(cc(O)c(OC)c4OC)[C@@]34CCN1[C@@H]24 | 700 | > 10000 | > 10000 | 2500 | 300 | 1200 | > 10000 | > 10000 | 2100 | 1700 | – | – | – | – | – | – | – | – | – | –
2 | COc1ccc(CCN(C)CCCC(C#N)(c2ccc(OC)c(OC)c2)C(C)C)cc1OC (stereo unspecified) [VERAPAMIL] | – | – | 800 | – | – | – | – | – | – | – | – | – | – | – | – | – | – | – | – | –
3 | CC[C@@]12CC(C(=O)OC)=C3N=C4C(=CC(=O)C(OC)=C4OC)[C@@]34CCN([C@@H]3c5cc6c(cc5O[C@@H]3[C@H]1O)NC1=C(C(=O)OC)C[C@]3(CC)[C@@H]5O[C@@H]5CN5CC[C@@]16[C@@H]53)[C@H]42 | 100 | 8600 | 1500 | 700 | > 10000 | 300 | 400 | > 10000 | 200 | 200 | – | – | – | – | – | – | – | – | – | –
4 | CC[C@@]12CC(C(=O)OC)=C3N=C4C(=CC(=O)C(OC)=C4OC)[C@@]34CCN([C@H](c3ccc5c(c3)[C@@]36CCN7C[C@H]8O[C@H]8[C@@](CC)(CC[C@@H]3N5C)[C@H]76)[C@H]3O[C@H]31)[C@H]42 | 1100 | 2700 | 4400 | 4300 | 3300 | 8400 | 6000 | > 10000 | 2400 | 3400 | > 10000 | – | – | – | – | – | – | – | – | –
5 | CC[C@@]12C=C(C(=O)OC)C3=Nc4c(cc(O)c(OC)c4OC)[C@@]34CCN([C@@H]3c5cc6c(cc5O[C@@H]3[C@H]1O)NC1=C(C(=O)OC)C[C@]3(CC)[C@@H]5O[C@@H]5CN5CC[C@@]16[C@@H]53)[C@@H]24 | 1100 | > 10000 | 4100 | 4700 | > 10000 | 4800 | 3600 | > 10000 | 4300 | 2200 | – | – | – | – | – | – | – | – | – | –
6 | CC[C@@]12CC(C(=O)OC)=C3N=C4C(=CC(=O)C(O)=C4OC)[C@@]34CCN([C@@H]3c5cc6c(cc5O[C@@H]3[C@H]1O)NC1=C(C(=O)OC)C[C@]3(CC)[C@@H]5O[C@@H]5CN5CC[C@@]16[C@@H]53)[C@H]42 (stereo in doubt; 8) | – | – | – | – | – | – | – | – | – | – | – | 10 | 2900 | 4200 | 500 | 1000 | 700 | 800 | 1000 | 4000
7 | CC[C@@]12CC(C(=O)OC)=C3N=C4C(=CC(=O)C(O)=C4OC)[C@@]34CCN([C@@H]3c5cc6c(cc5O[C@@H]3[C@H]1O)NC1=C(C(=O)OC)C[C@]3(CC)[C@@H]5O[C@@H]5CN5CC[C@@]16[C@@H]53)[C@H]42 (stereo in doubt; 7) | – | 4200 | 3000 | 600 | 1600 | 800 | 1300 | > 10000 | 500 | 800 | – | 30 | – | – | – | – | – | – | – | 1500
8 | CC[C@@]12CC(C(=O)OC)=C3Nc4c(cc(O)c(OC)c4OC)[C@@]34CCN([C@@H]3c5cc6c(cc5O[C@@H]3[C@H]1O)NC1=C(C(=O)OC)C[C@]35CCO[C@H]3CCN3CC[C@@]16[C@@H]35)[C@@H]24 | 500 | – | 1400 | – | – | – | – | > 10000 | – | – | 6200 | – | – | – | – | – | – | – | – | –
9 | CC[C@@]12CC(C(=O)OC)=C3Nc4cc5c(cc4[C@@]34CCN(C[C@H]3O[C@H]31)[C@@H]24)[C@@H]1[C@H](O5)[C@@H](O)[C@@]2(CC)CC(C(=O)OC)=C3Nc4c(ccc(OC)c4O)[C@@]34CCN1[C@@H]24 | 100 | > 10000 | 1300 | 7900 | 9600 | 600 | 1400 | > 10000 | 1100 | 300 | – | – | – | – | – | – | – | – | – | –
10 | CC[C@]1(O)C[C@H]2CN(CCc3c([nH]c4ccccc34)[C@@](C(=O)OC)(c3cc4c(cc3OC)N(C=O)[C@H]3[C@@](O)(C(=O)OC)[C@H](OC(C)=O)[C@]5(CC)C=CCN6CC[C@]43[C@@H]65)C2)C1 [VINCRISTINE] | 0.4 | 2600 | – | – | – | – | – | – | – | – | – | – | – | – | – | – | – | – | – | –
11 | CC[C@@]12CC[C@@H]3N(C)c4ccc([C@@H]5[C@H]6O[C@H]6[C@@]6(CC)CC(C(=O)OC)=C7Nc8c(cc(O)c(OC)c8OC)[C@@]78CCN5[C@@H]68)cc4[C@@]34CCN(C[C@H]3O[C@H]31)[C@@H]24 [CONOFOLINE] | > 10000 | > 10000 | – | 2300 | > 10000 | > 10000 | 9900 | 8200 | 6600 | 8500 | – | – | – | – | – | – | – | – | – | –
12 | CC[C@]12C=CCN3CC[C@]4(C(=C(C(=O)OC)C1)Nc1cc5c(cc14)[C@@H]1[C@H](O5)[C@@H](O)[C@@]4(CC)CC(C(=O)OC)=C5Nc6c(cc(O)c(OC)c6OC)[C@@]56CCN1[C@@H]46)[C@@H]32 | 1500 | > 10000 | – | – | – | – | – | – | – | – | – | – | – | – | – | – | – | – | – | –
13 | CC[C@@]12CC(C(=O)OC)=C3N=C4C(=CC(=O)C(OC)=C4OC)[C@@]34CCN([C@@H]3c5cc6c(cc5O[C@@H]3[C@H]1O)NC1=C(C(=O)OC)C[C@]3(CC)[C@H](O)[C@@H](O)CN5CC[C@@]16[C@@H]53)[C@H]42 | 200 | > 10000 | > 10000 | > 10000 | 2600 | 3500 | 5400 | > 10000 | 3100 | 2300 | > 10000 | – | – | – | – | – | – | – | – | –
14 | CC[C@@]12CC(C(=O)OC)=C3Nc4cc5c(cc4[C@@]34CCN(C[C@H]3O[C@H]31)[C@@H]24)[C@@H]1[C@H](O5)[C@@H](O)[C@@]2(CC)CC(C(=O)OC)=C3Nc4c(cc(O)c(OC)c4OC)[C@@]34CCN1[C@@H]24 [CONOPHYLLINE] | 30 | > 10000 | 4900 | 300 | > 10000 | 2100 | 1600 | 3200 | 800 | 3000 | – | – | – | – | – | – | – | – | – | –
15 | CC[C@]12C=CCN3CC[C@]4(C(=C(C(=O)OC)C1)Nc1cc5c(cc14)[C@@H]1[C@H](O5)[C@@H](O)[C@@]4(CC)CC(C(=O)OC)=C5N=C6C(=CC(=O)C(OC)=C6OC)[C@@]56CCN1[C@H]64)[C@@H]32 | 30 | 4600 | 4300 | 300 | 2800 | 800 | 500 | > 10000 | 100 | 400 | 5600 | – | – | – | – | – | – | – | – | –
